Laboratory results from patent publication US20100048950A1 (BOEHRINGER INGELHEIM INTERNATIONAL GMBH, priority 2007, published 2010).

Legend:
[1] = molecular target: T1, human glucocorticoid receptor (GR) complex (Homo sapiens, UniProt P04150); test: Glucocorticoid receptor competitive binding assay (fluorescence polarization); details: competition with TAMRA-labeled dexamethasone, read-out: potent activity (IC50) in the GR binding assay
T1 construct: made in house; host or cells: insect expression system (baculovirus lysate)
T1 sequence (P04150 1-777): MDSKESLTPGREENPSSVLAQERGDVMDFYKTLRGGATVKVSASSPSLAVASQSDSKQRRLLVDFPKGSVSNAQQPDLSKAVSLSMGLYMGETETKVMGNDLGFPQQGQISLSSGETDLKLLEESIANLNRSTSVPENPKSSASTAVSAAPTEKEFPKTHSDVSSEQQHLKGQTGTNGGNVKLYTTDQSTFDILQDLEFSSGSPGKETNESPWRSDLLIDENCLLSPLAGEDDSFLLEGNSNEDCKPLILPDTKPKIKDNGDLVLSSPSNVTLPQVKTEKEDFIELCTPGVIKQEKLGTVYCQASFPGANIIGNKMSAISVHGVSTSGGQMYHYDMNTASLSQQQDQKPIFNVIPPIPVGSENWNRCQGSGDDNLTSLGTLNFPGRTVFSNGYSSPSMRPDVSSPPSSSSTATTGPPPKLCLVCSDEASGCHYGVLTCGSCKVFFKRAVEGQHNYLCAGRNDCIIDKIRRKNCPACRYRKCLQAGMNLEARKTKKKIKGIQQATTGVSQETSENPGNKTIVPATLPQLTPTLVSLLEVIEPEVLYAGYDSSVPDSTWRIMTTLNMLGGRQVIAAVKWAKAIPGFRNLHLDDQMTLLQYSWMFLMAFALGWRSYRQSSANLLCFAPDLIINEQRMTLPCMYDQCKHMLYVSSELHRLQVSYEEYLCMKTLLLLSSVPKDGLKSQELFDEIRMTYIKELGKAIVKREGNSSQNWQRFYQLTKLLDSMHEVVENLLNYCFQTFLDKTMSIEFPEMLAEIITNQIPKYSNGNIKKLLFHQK
Outline: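 Human GR complex in baculovirus insect-cell lysate (1:170) competed against 15 nM TAMRA-dexamethasone stock for 1 h at room temperature. Buffer: TES/KCl/molybdate/EDTA/CHAPS/glycerol/DTT, pH 7.4, 1% DMSO final. FP read at 550/580 nm; IC50 from 4-parameter logistic fit.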

glucocorticoid receptor = test: Agonist activity in one or more of the above assays (GR cell assays); assay type: cell-based; details: in one or more of the above assays (assay not specified)
Experimental: Dexamethasone, a synthetic ligand to the glucocorticoid receptor (GR), induces expression of aromatase in human foreskin fibroblast cells. The activity of aromatase is measured by the conversion of testosterone to estradiol in culture media.
Human foreskin fibroblast cells (ATCC Cat. No. CRL-2429, designation CCD112SK) are plated on 96 well plates at 50,000 cells per well 5 days before use, in Iscove's Modified Dulbecco's Media (GibcoBRL Life Technologies Cat No. 12440-053) supplemented with 10% charcoal filtered FBS (Clonetech Cat No. SH30068) and Gentamycin (GibcoBRL Life Technologies Cat. No. 15710-064). On the day of the experiment, the media in the wells is replaced with fresh media. Cells are treated with test compounds to final concentrations of 10^−5 M to […], and testosterone to a final concentration of 300 ng/mL. Each well has a total volume of 100 μL. Samples are made in duplicates. Control wells include: (a) wells that receive testosterone only, and (b) wells that receive testosterone plus 2 μM of dexamethasone to provide maximum induction of aromatase. Plates are incubated at 37° C. overnight (15 to 18 hours), and supernatants are harvested at the end of incubation. Estradiol in the supernatant is measured using ELISA kits for estradiol (made by ALPCO, obtained from American Laboratory Products Cat. No. 020-DR-2693) according to the manufacture's instruction. The amount of estradiol is inversely proportional to the ELISA signals in each well. The extent of aromatase induction by test compounds is expressed as a relative percentage to dexamethasone. EC50 values of test compounds are derived by non-linear curve fitting.
Human foreskin fibroblast cells produce IL-6 in response to stimulation by pro-inflammatory cytokine IL-1.
Human foreskin fibroblast cells (ATCC Cat. No. CRL-2429) are plated on 96 well plates at 5,000 cells per well the day before use, in Iscove's Modified Dulbecco's Media (GibcoBRL Life Technologies Cat. No. 12440-053) supplemented with 10% charcoal filtered FBS (Clonetech Cat. No. SH30068) and Gentamycin (GibcoBRL Life Technologies Cat. No. 15710-064). On the next day, media in the wells is replaced with fresh media. Cells are treated with IL-1 (rhIL-1α, R&D Systems Cat. No. 200-LA) to a final concentration of 1 ng/mL, and with test compounds to final concentrations of 10^−5 M to 10^−8 M, in a total volume of 200 μL per well. Samples are done in duplicates. […] Positive control wells receive IL-1 only and represent maximum (or 100%) amount of IL-6 production. Plates are incubated at 37° C. overnight (15 to 18 hours), and supernatants are harvested at the end of incubation. IL-6 levels in the supernatants are determined by the ELISA kits for IL-6 (MedSystems Diagnostics GmbH, Vienna, Austria, Cat. No. BMS213TEN) according to manufacture's instructions. The extent of inhibition of IL-6 by test compounds is expressed in percentage relative to positive controls. IC50 values of test compounds are derived by non-linear curve fitting.
Evaluation of agonist or antagonist activity of compounds binding to the glucocorticoid receptor may be determined by any of the assays.
Testing of compounds for agonist or antagonist activity in induction of tyrosine aminotransferase (TAT) in rat hepatoma cells.
H4-II-E-C3 cells were incubated overnight in 96 well plates (20,000 cells/100 μL/well) in MEM medium containing 10% heat inactivated FBS and 1% nonessential amino acids. On the next day, cells were stimulated with the indicated concentrations of dexamethasone or test compound (dissolved in DMSO, final DMSO concentration 0.2%) for 18 hours. Control cells were treated with 0.2% DMSO. After 18 hours, the cells were lysed in a buffer containing 0.1% Triton X-100 and the TAT activity was measured in a photometric assay using tyrosine and alpha-ketoglutarate as substrates. […]

melting point | IC50 [1] | Structure (SMILES) | activity as an agonist of the glucocorticoid receptor function (glucocorticoid receptor)
151 °C | – | CC[C@@H](CNc1ccc(C)cc1C)NS(=O)(=O)c1c(N)cc(Cl)cc1Cl | –
– | ≤ 100 nM | Cc1cc(C)c(S(=O)(=O)NC(CNc2cccc3ccccc23)C(F)(F)F)c(C)c1 (centres unmarked) [2,4,6-Trimethyl-N-[2,2,2-trifluoro-1-(naphthalen-1-ylaminomethyl)ethyl]benzenesulfonamide] | activity as an agonist
– | ≤ 100 nM | Cc1cc(C)c(S(=O)(=O)NC(CSc2cccc3ccccc23)C(F)(F)F)c(C)c1 (centres unmarked) [2,4,6-Trimethyl-N-[2,2,2-trifluoro-1-(naphthalen-1-ylsulfanylmethyl)ethyl]benzenesulfonamide] | activity as an agonist
– | ≤ 100 nM | CC[C@@H](CNc1cccc2ccccc12)NS(=O)(=O)c1c(N)cc(Cl)cc1Cl [2-Amino-4,6-dichloro-N-[(S)-1-(naphthalen-1-ylaminomethyl)propyl]benzenesulfonamide] | activity as an agonist
– | ≤ 100 nM | CC[C@@H](CNc1ccc(C)cc1C)NS(=O)(=O)c1c(N)cc(Cl)cc1Cl [2-Amino-4,6-dichloro-N—{(S)-1-[(2,4-dimethylphenylamino)methyl]propyl}benzenesulfonamide] | activity as an agonist
– | ≤ 100 nM | Cc1cc(C)c(S(=O)(=O)NC(CNc2ccc(Cl)c3ccccc23)C(F)(F)F)c(C)c1 (centres unmarked) [N-{1-[(4-Chloronaphthalen-1-ylamino)methyl]-2,2,2-trifluoroethyl}-2,4,6-trimethylbenzenesulfonamide] | activity as an agonist
– | ≤ 100 nM | Cc1cc(C)c(S(=O)(=O)NC(CNc2cccc3c(C#N)cccc23)C(F)(F)F)c(C)c1 (centres unmarked) [N-{1-[(5-Cyanonephthalen-1-ylamino)methyl]-2,2,2-trifluoroethyl}-2,4,6-trimethyl-benzenesulfonamide] | activity as an agonist
– | ≤ 100 nM | CCN(CC(NS(=O)(=O)c1c(C)cc(C)cc1C)C(F)(F)F)c1cccc(C)c1 (centres unmarked) [N-{1-[(Ethyl-m-tolylamino)methyl]-2,2,2-trifluoroethyl}-2,4,6-trimethylbenzenesulfonamide] | –
– | ≤ 100 nM | CCN(CC(NS(=O)(=O)c1c(C)cc(C)cc1C)C(F)(F)F)c1ccccc1 (centres unmarked) [N-{1-[(Ethylphenylamino)methyl]-2,2,2-trifluoroethyl}-2,4,6-trimethylbenzenesulfonamide] | –
– | ≤ 100 nM | CC[C@@H](CNc1ccc(C)cc1C)NS(=O)(=O)c1c(C)cc(C)cc1C [N-{(S)-1-[(2,4-Dimethylphenylamino)methyl]propyl}-2,4,6-trimethylbenzenesulfonamide] | –
– | ≤ 100 nM | CC[C@@](C)(CN(CCC#N)c1cccc2ccccc12)NS(=O)(=O)c1c(C)cc(C)cc1C [N—((S)-1-{[(2-Cyanoethyl)naphthalen-1-ylamino]methyl}-1-methylpropyl)-2,4,6-trimethylbenzenesulfonamide] | –
